Source: patent US20240254138A1, “TRICYCLIC PYRIMIDINES AS CYCLIN-DEPENDENT KINASE 7 (CDK7) INHIBITORS” (JANSSEN PHARMACEUTICA NV, priority 2021, published 2024)
Like-named read-outs stand apart in the source and are kept apart here.

Key:
[1] = biological target: CDK7/cyclinH/MAT1 trimeric complex (Homo sapiens, UniProt P50613); test: In vitro CDK7 assay, potency of irreversible covalent inhibitors (kinact/KI), coupled PK/LDH ADP readout at 340 nm; settings: for kinact: read-out: CDK7 (20 nM enz.) (kinact, s^−1), 20 nM enzyme
CDK7/cyclinH/MAT1 trimeric complex, sequence (P50613 whole entry): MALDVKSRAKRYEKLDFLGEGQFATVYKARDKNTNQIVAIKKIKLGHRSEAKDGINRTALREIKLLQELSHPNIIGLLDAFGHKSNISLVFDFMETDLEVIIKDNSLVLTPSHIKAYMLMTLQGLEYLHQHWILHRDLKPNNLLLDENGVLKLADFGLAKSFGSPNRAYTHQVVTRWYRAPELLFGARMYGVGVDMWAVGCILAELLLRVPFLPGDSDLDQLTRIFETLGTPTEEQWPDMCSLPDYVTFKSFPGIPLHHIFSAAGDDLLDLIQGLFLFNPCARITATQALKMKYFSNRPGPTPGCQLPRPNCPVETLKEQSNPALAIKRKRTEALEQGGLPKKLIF
CDK7/cyclinH/MAT1 trimeric complex, sequence (P51946 whole entry partner): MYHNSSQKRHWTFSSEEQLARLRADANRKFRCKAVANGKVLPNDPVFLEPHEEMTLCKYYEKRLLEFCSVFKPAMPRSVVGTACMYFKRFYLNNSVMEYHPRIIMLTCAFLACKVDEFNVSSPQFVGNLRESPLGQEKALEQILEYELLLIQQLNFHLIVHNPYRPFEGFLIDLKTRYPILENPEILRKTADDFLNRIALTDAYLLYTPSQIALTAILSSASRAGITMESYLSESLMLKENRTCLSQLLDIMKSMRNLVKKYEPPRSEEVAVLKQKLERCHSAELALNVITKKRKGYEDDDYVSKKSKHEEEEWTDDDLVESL
CDK7/cyclinH/MAT1 trimeric complex, sequence (P51948 whole entry partner): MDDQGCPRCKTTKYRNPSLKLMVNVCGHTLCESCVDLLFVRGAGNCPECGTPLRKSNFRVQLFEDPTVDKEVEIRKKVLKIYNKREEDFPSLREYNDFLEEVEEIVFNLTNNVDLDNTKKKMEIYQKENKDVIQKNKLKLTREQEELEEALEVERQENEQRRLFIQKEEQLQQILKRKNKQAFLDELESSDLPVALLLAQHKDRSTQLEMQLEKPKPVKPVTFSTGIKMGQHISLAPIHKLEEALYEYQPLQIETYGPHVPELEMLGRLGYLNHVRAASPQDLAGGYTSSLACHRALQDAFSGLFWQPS

[2] = tested on: RNA Polymerase II Serine 5 phosphorylation in A549 cells overexpressing CDK7-mutant (C312S); test: Imaging-based cellular RNA PolII Ser5 phosphorylation assay in A549 cells overexpressing CDK7-mutant (C312S); format: cell-based, human; settings: RNA PolII Ser5 phosphorylation, averaged over all measurements; for IC50: Homo sapiens, A549, A549 cells overexpressing CDK7-mutant (C312S), read-out: CDK7_A549 mutant hCDK7(pIC50) (converted); for CDK7_A549 mutant hCDK7(pIC50): A549 cells overexpressing CDK7-mutant (C312S)
Outline: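 A549 cells overexpressing CDK7 C312S (with endogenous wild-type CDK7) were treated with compound for 3 h at 37 °C in 1% FBS medium. Phospho-Rpb1 CTD Ser5 was immunostained after fixation and imaged. IC50 came from curve fit of % control, normalised to DMSO and 10 μM reference-compound controls.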

[3] = tested on: RNA Polymerase II Serine 5 phosphorylation (Rpb1 CTD, downstream substrate of CDK7) in A549 cells; test: Imaging-based cellular RNA PolII Ser5 phosphorylation assay in A549 cells; format: cell-based, human; settings: wild-type CDK7, RNA PolII Ser5 phosphorylation, averaged over all measurements; for IC50: Homo sapiens, A549, A549 cells, read-out: CDK7_A549 Wild-type CDK7 (pIC50) (converted); for CDK7_A549 Wild-type CDK7 (pIC50): A549 cells
Outline: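 A549 cells, seeded 1000/well in DMEM with 1% FBS and cultured 20 h, were treated with compound for 3 h at 37 °C. Ser5-phospho-Rpb1 CTD detected by immunofluorescence imaging after fixation and methanol permeabilization; IC50 from curve fit normalized to DMSO and 10 μM reference-compound controls.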

[4] = CDK7 (20 nM enz.) (KI, μM), 20 nM enzyme
[5] = read-out: CDK7 (20 nM enz.) (kinact/KI, M^−1*s^−1), 20 nM enzyme
[6] = read-out: CDK7 (20 nM enz.) (kobs/[I], M^−1*s^−1), 20 nM enzyme

| Ki [1, 4] [µM] | kinact [1] [s⁻¹] | kinact/KI [1, 5] [M⁻¹ s⁻¹] | IC50 [2] [nM] | IC50 [3] [nM] | SMILES | also measured |
| --- | --- | --- | --- | --- | --- | --- |
|  |  | 305 | 3470 | 58.9 | C=CC(=O)N1CCC(N2CC(c3cc4c(c(C#N)n3)O[C@H](C)c3c(N5CCOCC5)ccnc3N4)C2)CC1 (single isomer, unassigned) [Compound 489] |  |
| 0.403 | 2.48e-05 | 61.4 | > 10000 | 479 | C=CC(=O)N1CCC(N2CC(c3cc4c(c(C#N)n3)O[C@@H](C)c3c(N5CCOCC5)ccnc3N4)C2)CC1 (single isomer, unassigned) [Compound 491] |  |
|  |  | 12.7 | > 10000 | 1200 | C=CC(=O)N1CC[C@H](N2CC(c3cc4c(c(C(F)(F)F)n3)O[C@@H](C)c3c(N5CCOCC5)ccnc3N4)C2)C1 (single isomer, unassigned) [Compound 500] |  |
| 2.35 | 3.59e-05 |  | > 10000 |  | C=CC(=O)N1CC[C@H](N2CC(c3cc4c(c(C(F)(F)F)n3)O[C@H](C)c3c(N5CCOCC5)ccnc3N4)C2)C1 (single isomer, unassigned) [Compound 501] | CDK7 (20 nM enz.) (kinact/KI, M^−1*s^−1) ([1]; 20 nM enzyme): 15.2689 M⁻¹ s⁻¹; CDK7_A549 Wild-type CDK7 (pIC50) [3]: 5.78 |
|  |  | 681 | 7760 | 47.9 | C=CC(=O)N1CC[C@@H](N2CC(c3cc4c(c(C(F)(F)F)n3)O[C@@H](C)c3c(N5CCOCC5)ccnc3N4)C2)C1 (single isomer, unassigned) [Compound 504] |  |
|  |  |  | 8320 | 102 | C=CC(=O)N1CC[C@@H](N2CC(c3cc4c(c(C#N)n3)O[C@H](C)c3c(N5CCOCC5)ccnc3N4)C2)C1 (single isomer, unassigned) [Compound 506] | kinact/KI [1, 6]: 348 M⁻¹ s⁻¹ |
|  |  |  | 8130 | 110 | C=CC(=O)N1CC[C@H](N2CC(c3cc4c(c(C#N)n3)O[C@H](C)c3c(N5CCOCC5)ccnc3N4)C2)C1 (single isomer, unassigned) [Compound 507] | kinact/KI [1, 6]: 389 M⁻¹ s⁻¹ |
|  |  | 6.21 | > 10000 | 2880 | C=CC(=O)N1CC[C@H](N2CC(c3cc4c(c(C#N)n3)O[C@@H](C)c3c(N5CCOCC5)ccnc3N4)C2)C1 (single isomer, unassigned) [Compound 508] |  |

The remaining lines, values behind:

| SMILES | Ki [1, 4] [µM] | kinact [1] [s⁻¹] | kinact/KI [1, 5] [M⁻¹ s⁻¹] | IC50 [2] [nM] | IC50 [3] [nM] | also measured |
| --- | --- | --- | --- | --- | --- | --- |
| CC#CC(=O)N1CC[C@H](N2CC(c3cc4c(c(C5CC5)n3)O[C@@H](C)c3c(N5CCOCC5)ccnc3N4)C2)C1 (single isomer, unassigned) [Compound 470] | 0.0394 | 3e-05 | 761 | > 10000 | 251 |  |
| CC#CC(=O)N1CC[C@H](N2CC(c3cc4c(c(C5CC5)n3)O[C@H](C)c3c(N5CCOCC5)ccnc3N4)C2)C1 (single isomer, unassigned) [Compound 471] | 3.64 | 3.28e-05 | 9.02 | > 10000 | 7080 |  |
| CC#CC(=O)N1CC[C@@H](N2CC(c3cc4c(c(C5CC5)n3)O[C@@H](C)c3c(N5CCOCC5)ccnc3N4)C2)C1 (single isomer, unassigned) [Compound 472] |  |  | 79.5 | > 10000 | 204 |  |
| CC#CC(=O)N1CC(N2CC(c3cc(C#N)c4c(c3)Nc3nccc(C5CCOCC5)c3[C@@H](C)O4)C2)C1 (single isomer, unassigned) [Compound 475] |  |  | 351 | 7590 | 204 |  |
| C=CC(=O)N1CC(N2CC(c3cc4c(c(C)n3)O[C@H](C)c3c(C5CCOCC5)ccnc3N4)C2)C1 (single isomer, unassigned) [Compound 477] |  |  | 342 | > 10000 | 166 |  |
| C=CC(=O)N1CC[C@H](N2CC(c3cc4c(c(C)n3)O[C@H](C)c3c(-c5cnn(C)c5)ccnc3N4)C2)C1 (single isomer, unassigned) [Compound 478] |  |  | 292 | > 10000 | 158 |  |
| C=CC(=O)N1CC(N2CC(c3cc4c(c(C)n3)O[C@@H](C)c3c(C5CCOCC5)ccnc3N4)C2)C1 (single isomer, unassigned) [Compound 480] |  |  | 2.97 | > 10000 | 4570 |  |
| C=CC(=O)N1CC[C@@H](N2CC(c3cc4c(c(C)n3)O[C@H](C)c3c(-c5cnn(C)c5)ccnc3N4)C2)C1 (single isomer, unassigned) [Compound 482] |  |  | 339 | > 10000 | 89.1 |  |
| CC#CC(=O)N1CC(N2CC(c3cc(C#N)c4c(c3)Nc3nccc(C5CCOCC5)c3[C@H](C)O4)C2)C1 (single isomer, unassigned) [Compound 486] |  |  | 1.32 | > 10000 | 5620 |  |
| CC#CC(=O)N1CC(N2CC(c3cc4c(c(C)n3)O[C@@H](C)c3c(C5CCOCC5)ccnc3N4)C2)C1 (single isomer, unassigned) [Compound 487] |  |  | 1.54 | > 10000 | > 10000 |  |
| CC#CC(=O)N1CC(N2CC(c3cc4c(c(C)n3)O[C@H](C)c3c(C5CCOCC5)ccnc3N4)C2)C1 (single isomer, unassigned) [Compound 488] | 0.328 | 4.23e-05 | 129 | > 10000 | ~302 |  |
| C=CC(=O)N1CC[C@@H](N2CC(c3cc4c(c(C(F)(F)F)n3)OCc3c(-c5cnn(C)c5)ccnc3N4)C2)C1 (single isomer, unassigned) [Compound 495] | 0.0763 | 5.75e-05 | 754 | > 10000 | 145 |  |
| C=CC(=O)N1CC[C@H](N2CC(c3cc4c(c(C(F)(F)F)n3)OCc3c(-c5cnn(C)c5)ccnc3N4)C2)C1 (single isomer, unassigned) [Compound 497] | 0.0437 | 5.55e-05 | 1270 | > 10000 | 138 |  |
| CC#CC(=O)N1CC(N2CCC(c3cc4c(c(C5CC5)n3)O[C@@H](C)c3c(N5CCOCC5)ccnc3N4)CC2)C1 (single isomer, unassigned) [Compound 498] | 0.0867 | 5.15e-05 | 594 | > 10000 | 148 |  |
| CC#CC(=O)N1CC(N2CCC(c3cc4c(c(C5CC5)n3)O[C@H](C)c3c(N5CCOCC5)ccnc3N4)CC2)C1 (single isomer, unassigned) [Compound 499] |  |  |  |  |  | CDK7 (20 nM enz.) (kinact, s^−1) ([1]; 20 nM enzyme): 4.482e-05 s⁻¹; CDK7 (20 nM enz.) (kinact/KI, M^−1*s^−1) ([1]; 20 nM enzyme): 20.4314 M⁻¹ s⁻¹; Ki ([1]; read-out: CDK7 (20 nM enz.) (KI), 20 nM enzyme): 2.19 µM; CDK7_A549 mutant hCDK7(pIC50) [2]: <5; CDK7_A549 Wild-type CDK7 (pIC50) [3]: 5.74 |
| CC#CC(=O)N1CCC(N2CC(c3cc4c(c(C(F)(F)F)n3)O[C@@H](C)c3c(N5CCOCC5)ccnc3N4)C2)CC1 (single isomer, unassigned) [Compound 502] |  |  | 9.74 | > 10000 | 603 |  |
| C=CC(=O)N1CC[C@H](N2CC(c3cc4c(c(C(F)(F)F)n3)O[C@H](C)c3c(N5CCOCC5)ccnc3N4)C2)C1 (single isomer, unassigned) [Compound 503] |  |  |  |  |  | CDK7 (20 nM enz.) (kinact/KI, M^−1*s^−1) ([1]; 20 nM enzyme): 629.38 M⁻¹ s⁻¹; CDK7_A549 mutant hCDK7(pIC50) [2]: 5.12; CDK7_A549 Wild-type CDK7 (pIC50) [3]: 6.88 |
| CC#CC(=O)N1CCC(N2CC(c3cc4c(c(C(F)(F)F)n3)O[C@H](C)c3c(N5CCOCC5)ccnc3N4)C2)CC1 (single isomer, unassigned) [Compound 505] |  |  | 246 | 2400 | 38 |  |
